Literature values, collected in patent US5629431A, “Inhibitors of retroviral proteases” (Hoechst Aktiengesellschaft, priority 1989, dated 1997).
Square brackets hold non-standard residues; d marks the D form. Peptide text beside a SMILES is read from it. * marks the point of attachment. Sta = CC(C)C[C@H](N)[C@@H](O)CC(=O)O; Isovaleryl = CC(C)CC(=O)*

Assays:
[1] = test system: HIV protease; details: literature value (Katoh et al., Nature 329, 1987); read-out: IC50 against HIV protease
[2] = test system: formation of the nuclear protein p24 and activity of reverse transcriptase; details: high doses; in the biosynthesis (v. d. Helm et al., FEBS Lett. 247, 1989)

SMILES: CC(C)CC(=O)N[C@H](C(=O)N[C@H](C(=O)N[C@@H](CC(C)C)[C@@H](O)CC(=O)N[C@@H](C)C(=O)N[C@@H](CC(C)C)[C@@H](O)CC(=O)O)C(C)C)C(C)C [pepstatin A] (Isovaleryl-VV[Sta]A[Sta]-OH)
- activity of reverse transcriptase [2]: reduction
- formation of the nuclear protein p24 [2]: reduction
